According to the supplement of paper PMC10307832:

Key:
Assay in all cases: relative viability (nuclei count vs DMSO), 5 days (fraction); higher = more cells survive
MK-2206 + Crizotinib = compound: NC1(c2ccc(-c3nc4ccn5c(=O)[nH]nc5c4cc3-c3ccccc3)cc2)CCC1 [MK-2206] + C[C@@H](Oc1cc(-c2cnn(C3CCNCC3)c2)cnc1N)c1c(Cl)ccc(F)c1Cl [Crizotinib] (partner 1 µM)
Method in brief: (§1)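 Lung cancer cell lines in 1536-well plates were dosed by pin tool the day after seeding, either with one drug alone or with a fixed anchor-drug dose plus five library-drug doses (not always all listed) in √10 steps. After 5 days, cells were fixed and their nuclei stained in one step (final 0.05% Triton X-100, 1% formaldehyde, 1 ug/ml Hoechst), then counted on 4× images. Relative viability is the nuclei count in treated wells divided by that in vehicle wells. Values are medians of duplicate plates.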

Pictilisib + Pemetrexed = compound: CS(=O)(=O)N1CCN(Cc2cc3nc(-c4cccc5[nH]ncc45)nc(N4CCOCC4)c3s2)CC1 [Pictilisib] + Nc1nc2[nH]cc(CCc3ccc(C(=O)N[C@@H](CCC(=O)O)C(=O)O)cc3)c2c(=O)[nH]1 [Pemetrexed] (partner 0.2 µM)
Method in brief: as §1

MK-2206 + AZD7762 = compound: NC1(c2ccc(-c3nc4ccn5c(=O)[nH]nc5c4cc3-c3ccccc3)cc2)CCC1 [MK-2206] + NC(=O)Nc1cc(-c2cccc(F)c2)sc1C(=O)N[C@H]1CCCNC1 [AZD7762] (partner 0.2 µM)
Method in brief: as §1

MK-2206 + Trametinib = compound: NC1(c2ccc(-c3nc4ccn5c(=O)[nH]nc5c4cc3-c3ccccc3)cc2)CCC1 [MK-2206] + CC(=O)Nc1cccc(-n2c(=O)n(C3CC3)c(=O)c3c(Nc4ccc(I)cc4F)n(C)c(=O)c(C)c32)c1 [Trametinib] (partner 0.02 µM)
Method in brief: as §1

Pictilisib + Bortezomib = compound: CS(=O)(=O)N1CCN(Cc2cc3nc(-c4cccc5[nH]ncc45)nc(N4CCOCC4)c3s2)CC1 [Pictilisib] + CC(C)C[C@H](NC(=O)[C@H](Cc1ccccc1)NC(=O)c1cnccn1)B(O)O [Bortezomib] (partner 0.002 µM)
Method in brief: as §1

Cell Line	relative viability (MK-2206 + Crizotinib; first compound 0.01 µM)	relative viability (MK-2206 + Crizotinib; first compound 0.03162 µM)	relative viability (MK-2206 + Crizotinib; first compound 0.3162 µM)	relative viability (MK-2206 + Crizotinib; first compound 1 µM)	relative viability (Pictilisib + Pemetrexed; first compound 0.02 µM)	relative viability (Pictilisib + Pemetrexed; first compound 0.06325 µM)	relative viability (Pictilisib + Pemetrexed; first compound 0.6325 µM)	relative viability (Pictilisib + Pemetrexed; first compound 2 µM)	relative viability (MK-2206 + AZD7762; first compound 0.01 µM)	relative viability (MK-2206 + AZD7762; first compound 0.03162 µM)	relative viability (MK-2206 + AZD7762; first compound 0.3162 µM)	relative viability (MK-2206 + AZD7762; first compound 1 µM)	relative viability (MK-2206 + Trametinib; first compound 0.01 µM)	relative viability (MK-2206 + Trametinib; first compound 0.03162 µM)	relative viability (MK-2206 + Trametinib; first compound 0.3162 µM)	relative viability (MK-2206 + Trametinib; first compound 1 µM)	relative viability (Pictilisib + Bortezomib; first compound 0.02 µM)	relative viability (Pictilisib + Bortezomib; first compound 0.06325 µM)	relative viability (Pictilisib + Bortezomib; first compound 0.6325 µM)	relative viability (Pictilisib + Bortezomib; first compound 2 µM)
NCI-H2085	0.887	0.888	0.876	0.724	0.826	0.911	0.401	0.303	0.85	0.954	0.918	0.769	0.527	0.52	0.292	0.36	1.08	1.07	0.871	0.467
NCI-H650	0.725	0.72	0.563	0.805	1.02	0.887	0.701	0.525	1	0.706	1.13	1	0.981	0.98	1.03	0.991	1.04	0.938	0.526	0.445
NCI-H1993	0.842	0.86	0.729	0.68	0.608	0.605	0.449	0.442	0.804	0.864	0.483	0.475	0.61	0.422	0.43	0.419	0.984	1.04	0.601	0.448
EMC-BAC-2	0.714	0.729	0.781	0.745	0.45	0.451	0.424	0.41	1.06	1.17	1.02	0.852	0.863	0.799	0.78	0.673	1.05	1.2	0.917	0.68
NCI-H2087	0.777	0.889	0.749	0.835	0.7	0.736	0.612	0.553	0.809	1.34	1.4	1.33	0.246	0.211	0.176	0.133	0.733	0.772	0.953	0.503
NCI-H441	0.798	0.639	0.612	0.643	0.279	0.276	0.256	0.202	1.27	0.941	1.25	0.869	0.532	0.447	0.28	0.333	0.702	0.373	0.41	0.338
LXF-289	0.786	0.819	0.841	0.888	0.948	0.874	0.983	0.669	1.06	1.01	1.12	1.15	0.65	0.699	0.68	0.663	1.04	1.05	0.993	0.819
PC-3 [JPC-3]	0.973	0.98	0.946	1.03	1.22	1.24	0.872	0.579	0.881	0.849	0.774	0.334	0.686	0.804	0.599	0.735	0.795	0.87	0.896	0.811
HCC-366	0.48	0.532	0.452	0.442	0.172	0.195	0.248	0.122	0.26	0.204	0.244	0.18	0.302	0.384	0.204	0.223	1.08	1.01	0.691	0.189
NCI-H1651	0.878	0.875	0.892	0.884	0.516	0.591	0.519	0.38	0.506	0.367	0.466	0.438	0.797	0.849	0.853	0.819	0.948	0.939	0.911	0.707
NCI-H1355	1.07	1.03	1.08	0.914	1.02	1.05	1.08	0.478	0.664	0.557	0.681	0.6	0.407	0.414	0.363	0.378	1.23	1.2	1.14	0.678
LC-2-ad	0.494	0.453	0.435	0.42	0.277	0.278	0.272	0.23	0.815	0.868	0.889	0.782	0.924	0.886	0.933	0.927	1.05	1	0.633	0.56
HCC-827	0.966	0.874	0.977	0.98	0.265	0.28	0.196	0.221	0.325	0.184	0.227	0.186	0.541	0.548	0.491	0.444	1.03	1.03	1.14	1.03
NCI-H3122	0.261	0.278	0.218	0.263	0.189	0.196	0.192	0.172	0.936	1.04	0.979	0.91	0.237	0.234	0.198	0.211	0.99	1.05	1.04	0.601
BEN	0.906	0.956	0.913	0.908	0.809	0.858	0.81	0.546	0.729	0.621	0.713	0.601	1.17	1.2	1.23	1.05	0.811	0.941	0.762	0.489
NCI-H647	1.03	1.06	1.04	0.897	0.172	0.175	0.143	0.141	0.46	0.356	0.521	0.473	0.457	0.473	0.429	0.364	1.19	1.07	0.965	0.513
